Assay results: BindingDB's records for patent US20240336593 (Lnnovstonetherapeutics, 2024)

biological target: Protein arginine N-methyltransferase 5 (Homo sapiens, UniProt O14744); assay: Test on the inhibitory activity of the compounds of the invention against PRMT5 enzyme by radioisotopic method
Protocol: Test method: A 1× enzyme reaction buffer (10 mM Tris 8.0 (Sigma, Cat. No. T2694-1L), 0.01% Tween-20 (Sigma, Cat. No. P2287-100 ML), 1 mM DTT (Sigma, Cat. No. D0632-10G)) was prepared. […] SAM (PerkinElmer, Cat. No. NET155V001MC) were added to the 1×enzyme reaction buffer, to prepare a 25/15× mixed solution (PRMT5 final concentration: 5 nM, [3H] SAM final concentration: 0.3 μM). […] 25 µL of the reaction mixture was transferred into a FlashPlate (Streptavidin FlashPlate HTS PLUS, High Capacity, 384-well, Perkin Elmer, Cat. No. SMP410A001PK), and incubated at room temperature for 1 h. After washed three times with distilled water containing 0.1% Tween-20, the microplate was read on a MicroBeta reader for CPM data (Counts Per Minute). […] Then the inhibition rate Inh % (Y) corresponding to each concentration (X) was input in EXCEL, and the IC50 value (the half maximal inhibitory concentration) of each compound was calculated with the XLfit plug-in according to the built-in four-parameter fitting equation Y=Bottom+(Top-Bottom)/(1+(IC50/X)[…]).

Protein arginine N-methyltransferase 5, sequence (O14744 whole entry): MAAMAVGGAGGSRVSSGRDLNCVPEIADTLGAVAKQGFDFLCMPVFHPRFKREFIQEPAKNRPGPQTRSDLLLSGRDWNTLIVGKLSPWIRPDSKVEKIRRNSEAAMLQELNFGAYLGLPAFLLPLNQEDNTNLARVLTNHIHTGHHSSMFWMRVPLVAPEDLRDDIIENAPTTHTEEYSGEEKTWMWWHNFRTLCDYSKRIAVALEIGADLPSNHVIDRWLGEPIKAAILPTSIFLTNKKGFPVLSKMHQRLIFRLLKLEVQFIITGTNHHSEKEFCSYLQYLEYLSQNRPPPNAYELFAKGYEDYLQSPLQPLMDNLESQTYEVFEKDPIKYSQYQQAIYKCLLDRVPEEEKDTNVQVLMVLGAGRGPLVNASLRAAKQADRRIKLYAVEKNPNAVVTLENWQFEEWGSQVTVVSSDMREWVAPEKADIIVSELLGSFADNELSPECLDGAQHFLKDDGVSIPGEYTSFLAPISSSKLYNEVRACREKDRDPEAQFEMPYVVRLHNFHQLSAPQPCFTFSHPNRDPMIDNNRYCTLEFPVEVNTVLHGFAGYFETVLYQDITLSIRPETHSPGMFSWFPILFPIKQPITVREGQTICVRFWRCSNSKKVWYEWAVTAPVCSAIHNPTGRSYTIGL

SMILES | IC50 [nM]
Cc1cccc(Nc2cc(N3CC[C@H](N4CCc5ccccc5C4)[C@@H](O)C3)ncn2)c1 (relative stereo) [US20240336593, Example 34] | < 100
CN1CCC(Nc2cc(C(=O)N3CC[C@H](N4CCc5ccccc5C4)[C@@H](O)C3)ncn2)CC1 (relative stereo) [US20240336593, Example 100] | < 100
COc1ccccc1Nc1cc(C(=O)N2CC[C@H](N3CCc4ccccc4C3)[C@@H](O)C2)ncn1 (relative stereo) [US20240336593, Example 105] | < 100
O=C(c1cc(NC2CCN(CC(F)(F)F)CC2)ncn1)N1CC[C@H](N2CCc3ccccc3C2)[C@@H](O)C1 (relative stereo) [US20240336593, Example 121] | < 100
O=C(c1cc(NC2CCOCC2)ncn1)N1CC[C@H](O)[C@@H](N2CCc3ccccc3C2)CC1 (relative stereo) [US20240336593, Example 128] | < 100
CN1CCC(Nc2cc(C(=O)N3CC[C@H](O)[C@@H](N4CCc5ccccc5C4)CC3)ncn2)CC1 (relative stereo) [US20240336593, Example 129] | < 100
CS(=O)(=O)N1CCC(Nc2cc(C(=O)N3CC[C@H](O)[C@@H](N4CCc5ccccc5C4)CC3)ncn2)CC1 (relative stereo) [US20240336593, Example 130] | < 100
CS(=O)(=O)c1ccc(Nc2cc(C(=O)N3CC[C@H](N4CCc5ccccc5C4)[C@@H](O)C3)ncn2)cc1 (relative stereo) [US20240336593, Example 132] | < 100
CS(=O)(=O)c1cccc(Nc2cc(C(=O)N3CC[C@H](N4CCc5ccccc5C4)[C@@H](O)C3)ncn2)c1 (relative stereo) [US20240336593, Example 133] | < 100
O=C(c1cc(NC2CCS(=O)(=O)CC2)ncn1)N1CC[C@H](N2CCc3ccccc3C2)[C@@H](O)C1 (relative stereo) [US20240336593, Example 135] | < 100
O=C(c1cc(NC2CCNCC2)ncn1)N1CC[C@H](N2CCc3ccccc3C2)[C@@H](O)C1 [US20240336593, Example 112] | < 100
O=C(c1cc(NC2CCN(CCO)CC2)ncn1)N1CC[C@H](N2CCc3ccccc3C2)[C@@H](O)C1 [US20240336593, Example 122] | < 100
N#CCC(=O)N1CCC(Nc2cc(C(=O)N3CC[C@H](N4CCc5ccccc5C4)[C@@H](O)C3)ncn2)CC1 [US20240336593, Example 143] | < 100
CC(=O)N1CCC(Nc2cc(C(=O)N3CC[C@@H](N4CCc5ccccc5C4)[C@H](O)C3)nc(-c3cn[nH]c3)n2)CC1 [US20240336593, Example 145] | < 100
CO[C@H]1C[C@@H](Nc2cc(C(=O)N3CC[C@@H](N4CCc5ccccc5C4)[C@H](O)C3)nc(-c3ccccc3)n2)C1 [US20240336593, Example 146] | < 100
O=C(c1cc(NCC(F)F)nc(-n2ccnc2)n1)N1CCC(N2CCc3ccccc3C2)[C@H](O)C1 (some centres not stated) [US20240336593, Example 147] | < 100
COCCCCNc1cc(C(=O)N2CC[C@@H](N3CCc4ccccc4C3)[C@H](O)C2)nc(-c2ccccc2)n1 [US20240336593, Example 148] | < 100
